Experimental data taken from the supplement of paper PMC10307832.

Tests used:
Assay in all cases: relative viability (nuclei count vs DMSO), 5 days (fraction); higher = more cells survive
[1] = compound: C1=CC=C(C(=C1)C2=CC=C(C=C2)C3=CSC4=C3C(=C(C(=O)N4)C#N)O)O + NC(=O)Nc1cc(-c2cccc(F)c2)sc1C(=O)N[C@H]1CCCNC1 [AZD7762] (partner 0.2 µM)
Method in brief: (§1)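 Each reported value is a median over duplicate plates. It expresses relative viability: treated-well nuclei count divided by vehicle-well nuclei count. Lung cancer cell lines in 1536-well plates were dosed by pin tool a day after seeding, alone with one drug or with a fixed anchor-drug dose plus five library-drug doses (not always all listed) in √10 steps, and nuclei were counted after 5 days.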

[2] = compound: C1=CC=C(C(=C1)C2=CC=C(C=C2)C3=CSC4=C3C(=C(C(=O)N4)C#N)O)O + O=C(CCCCCCC(=O)Nc1ccccc1)NO [Vorinostat] (partner 1 µM)
Method in brief: as §1

[3] = compound: C1=CC=C(C(=C1)C2=CC=C(C=C2)C3=CSC4=C3C(=C(C(=O)N4)C#N)O)O + O=C(c1cc(Cc2n[nH]c(=O)c3ccccc23)ccc1F)N1CCN(C(=O)C2CC2)CC1 [Olaparib] (partner 8 µM)
Method in brief: as §1

TGX 221 + Vorinostat = compound: CC1=CN2C(=O)C=C(N=C2C(=C1)C(C)NC3=CC=CC=C3)N4CCOCC4 [TGX 221] + O=C(CCCCCCC(=O)Nc1ccccc1)NO [Vorinostat] (partner 1 µM)
Method in brief: as §1

Cell Line	relative viability ([1]; first compound 0.08 µM)	relative viability ([1]; first compound 0.253 µM)	relative viability ([1]; first compound 0.8 µM)	relative viability ([1]; first compound 2.53 µM)	relative viability ([1]; first compound 8 µM)	relative viability ([2]; first compound 0.08 µM)	relative viability ([2]; first compound 0.253 µM)	relative viability ([2]; first compound 0.8 µM)	relative viability ([2]; first compound 2.53 µM)	relative viability ([2]; first compound 8 µM)	relative viability ([3]; first compound 0.08 µM)	relative viability ([3]; first compound 0.253 µM)	relative viability ([3]; first compound 0.8 µM)	relative viability ([3]; first compound 2.53 µM)	relative viability ([3]; first compound 8 µM)	relative viability (TGX 221 + Vorinostat; first compound 0.08 µM)	relative viability (TGX 221 + Vorinostat; first compound 0.253 µM)	relative viability (TGX 221 + Vorinostat; first compound 0.8 µM)	relative viability (TGX 221 + Vorinostat; first compound 2.53 µM)	relative viability (TGX 221 + Vorinostat; first compound 8 µM)
NCI-H3122	0.985	0.987	0.995	1.03	0.917	1	0.992	1.14	1.09	0.89	0.715	0.675	0.573	0.645	0.45	1.02	0.823	1.08	0.969	1.04
PC-3 [JPC-3]	0.597	0.935	0.645	0.745	0.618	0.809	0.909	0.758	0.658	0.662	1.11	1.37	1.15	1.23	1.24	0.719	0.715	0.839	0.655	0.881
PC-14	0.316	0.272	0.332	0.363	0.24	0.64	0.863	0.563	0.71	0.567	0.352	0.261	0.252	0.255	0.28	0.682	0.626	0.687	0.748	0.662
RERF-LC-KJ	0.884	1.06	0.947	0.778	0.553	0.639	0.763	0.751	0.714	0.544	0.956	1.03	0.963	1.02	0.8	0.684	0.708	0.678	0.69	0.678
SW 900	–	0.625	0.607	0.692	0.563	–	0.633	0.412	0.406	0.358	–	1.13	0.869	0.903	0.839	–	0.473	0.403	0.37	0.505
